IC50 data for ten molecules are collected here from US20240408085A1, “COMPOUND FOR DEGRADATION OF BCL-2 FAMILY PROTEINS AND MEDICAL APPLICATION THEREOF” (XIZANG HAISCO PHARMACEUTICAL CO., LTD., priority 2021, published 2024).

The first assay has as its system MOLT-4 cells. As to the kind of experiment: Cell proliferation activity in MOLT-4 cells (72 h, cell viability luminescence). To be noted: Homo sapiens, read-out: IC50 for the inhibition of MOLT-4 cell proliferation. Format: cell-based, human. Here is the method: MOLT-4 cells are acute lymphoblastic leukemia cell lines in humans. The cells were purchased from ATCC. Culture conditions: RPMI-1640+10% FBS+1% penicillin-streptomycin solution. The cells were cultured in a 37° C., 5% CO2 incubator. The cells were plated in a 96-well plate, with 5×10^3 cells/well. After plating, compounds at different concentrations were added and cultured in a 37° C., 5% CO2 incubator for 72 h. After the completion of culture, a reagent (Promega, G7573) for detecting the cell viability was added. The mixture was uniformly mixed for 2 minutes and then incubated at room temperature for 10 minutes. The luminescence signal was detected with a multimode plate reader (BMG, PHERAstar FSX). The luminescence readings were processed using GraphPad Prism 8.0 software and the IC50 values of the compounds for the inhibition of cell proliferation and the maximum inhibition rate were calculated according to formula (2) and formula (3), respectively, wherein Tadministration denotes the cell signal readings obtained after incubation with the compounds for 72 h, and Tvehicle denotes the cell signal readings obtained after incubation with the vehicle control for 72 h.
Calculation of Max inhibition %: after the processing according to formula (2), the inhibition rate of the compounds at the highest concentration was calculated.
As for `Cc1ncsc1-c1ccc([C@H](C)NC(=O)[C@@H]2C[C@@H](O)CN2C(=O)[C@@H](NC(=O)CCCCCC(=O)N2C[C@@H]3C[C@H]2CN3CC[C@H](CSc2ccccc2)Nc2ccc(S(=O)(=O)NC(=O)c3ccc(N4CCN(CC5=C(c6ccc(Cl)cc6)CCC6(CC6)C5)CC4)cc3)cc2S(=O)(=O)C(F)(F)F)C(C)(C)C)cc1` [Compound 27, (2S,4R)-1-((S)-2-(7-((1S,4S)-5-((R)-3-((4-(N-(4-(4-((6-(4-chlorophenyl)spiro[2.5]oct-5-en-5-yl)methyl)piperazin-1-yl)benzoyl)sulfamoyl)-2-((trifluoromethyl)sulfonyl)phenyl)amino)-4-(phenylthio)butyl)-2,5-diazabicyclo[2.2.1]heptan-2-yl)-7-oxoheptanamido)-3,3-dimethylbutanoyl)-4-hydroxy-N—((S)-1-(4-(4-methylthiazol-5-yl)phenyl)ethyl)pyrrolidine-2-carboxamide], the IC50 was under 0.5 µM. As to `Cc1ncsc1-c1ccc([C@H](C)NC(=O)[C@@H]2C[C@@H](O)CN2C(=O)[C@@H](NC(=O)CCCCCCC(=O)N2C[C@H]3CN(CC[C@H](CSc4ccccc4)Nc4ccc(S(=O)(=O)NC(=O)c5ccc(N6CCN(CC7=C(c8ccc(Cl)cc8)CCCCC7)CC6)cc5)cc4S(=O)(=O)C(F)(F)F)C[C@H]3C2)C(C)(C)C)cc1` [Compound 42, cis-(2S,4R)-1-((S)-2-(8-(5-((R)-3-((4-(N-(4-(4-((2-(4-chlorophenyl)cyclohept-1-en-1-yl)methyl)piperazin-1-yl)benzoyl)sulfamoyl)-2-((trifluoromethyl)sulfonyl)phenyl)amino)-4-(phenylthio)butyl)hexahydropyrrolo[3,4-c]pyrrol-2(1H)-yl)-8-oxooctanamido)-3,3-dimethylbutanoyl)-4-hydroxy-N—((S)-1-(4-(4-methylthiazol-5-yl)phenyl)ethyl)pyrrolidine-2-carboxamide], the IC50 was under 0.5 µM. As for `Cc1ncsc1-c1ccc([C@H](C)NC(=O)[C@@H]2C[C@@H](O)CN2C(=O)[C@@H](NC(=O)CCCCCCC(=O)N2C[C@H]3CN(CC[C@H](CSc4ccccc4)Nc4ccc(S(=O)(=O)NC(=O)c5ccc(N6CCN(CC7=C(c8ccc(Cl)cc8F)CCCCC7)CC6)cc5)cc4S(=O)(=O)C(F)(F)F)C[C@H]3C2)C(C)(C)C)cc1` [Compound 40, cis-(2S,4R)-1-((S)-2-(8-(5-((R)-3-((4-(N-(4-(4-((2-(4-chloro-2-fluorophenyl)cyclohept-1-en-1-yl)methyl)piperazin-1-yl)benzoyl)sulfamoyl)-2-((trifluoromethyl)sulfonyl)phenyl)amino)-4-(phenylthio)butyl)hexahydropyrrolo[3,4-c]pyrrol-2(1H)-yl)-8-oxooctanamido)-3,3-dimethylbutanoyl)-4-hydroxy-N—((S)-1-(4-(4-methylthiazol-5-yl)phenyl)ethyl)pyrrolidine-2-carboxamide], the IC50 is under 0.5 µM. Consider `O=C1CCC(N2C(=O)c3ccc(N4CC(CN5CCN(CC[C@H](CSc6ccccc6)Nc6ccc(S(=O)(=O)NC(=O)c7ccc(N8CCN(CC9=C(c%10ccc(Cl)cc%10)CCCCC9)CC8)cc7)cc6S(=O)(=O)C(F)(F)F)CC5)C4)cc3C2=O)C(=O)N1` (stereo partly drawn) [Compound 44, 4-(4-((2-(4-chlorophenyl)cyclohept-1-en-1-yl)methyl)piperazin-1-yl)-N-((4-(((2R)-4-(4-((1-(2-(2,6-dioxopiperidin-3-yl)-1,3-dioxoisoindolin-5-yl)azetidin-3-yl)methyl)piperazin-1-yl)-1-(phenylthio)butan-2-yl)amino)-3-((trifluoromethyl)sulfonyl)phenyl)sulfonyl)benzamide], for which the IC50 is under 0.5 µM. Same read-out and setting: then `Cc1ncsc1-c1ccc([C@H](C)NC(=O)[C@@H]2C[C@@H](O)CN2C(=O)[C@@H](NC(=O)CCCCCC(=O)N2CCN(CC[C@H](CSc3ccccc3)Nc3ccc(S(=O)(=O)NC(=O)c4ccc(N5CCN(CC6=C(c7ccc(Cl)cc7)CCC(C)(C)C6)CC5)nc4)cc3S(=O)(=O)C(F)(F)F)CC2)C(C)(C)C)cc1` [Compound 7, 6-(4-((4′-chloro-4,4-dimethyl-3,4,5,6-tetrahydro-[1,1′-biphenyl]-2-yl)methyl)piperazin-1-yl)-N-((4-(((R)-4-(4-(7-(((S)-1-((2S,4R)-4-hydroxy-2-(((S)-1-(4-(4-methylthiazol-5-yl)phenyl)ethyl)carbamoyl)pyrrolidin-1-yl)-3,3-dimethyl-1-oxobutan-2-yl)amino)-7-oxoheptanoyl)piperazin-1-yl)-1-(phenylthio)butan-2-yl)amino)-3-((trifluoromethyl)sulfonyl)phenyl)sulfonyl)nicotinamide], with under 0.5 µM; and `Cc1ncsc1-c1ccc([C@H](C)NC(=O)[C@@H]2C[C@@H](O)CN2C(=O)[C@@H](NC(=O)CCCCCCC(=O)N2C[C@H]3CN(CC[C@H](CSc4ccccc4)Nc4ccc(S(=O)(=O)NC(=O)c5ccc(N6CCN(CC7=C(c8ccc(Cl)cc8)CCC8(CC8)C7)CC6)cc5)cc4S(=O)(=O)C(F)(F)F)C[C@H]3C2)C(C)(C)C)cc1` [Compound 22, cis-(2S,4R)-1-((S)-2-(8-(5-((R)-3-((4-(N-(4-(4-((6-(4-chlorophenyl)spiro[2.5]oct-5-en-5-yl)methyl)piperazin-1-yl)benzoyl)sulfamoyl)-2-((trifluoromethyl)sulfonyl)phenyl)amino)-4-(phenylthio)butyl)hexahydropyrrolo[3,4-c]pyrrol-2(1H)-yl)-8-oxooctanamido)-3,3-dimethylbutanoyl)-4-hydroxy-N—((S)-1-(4-(4-methylthiazol-5-yl)phenyl)ethyl)pyrrolidine-2-carboxamide], with under 0.5 µM; and `Cc1ncsc1-c1ccc([C@H](C)NC(=O)[C@@H]2C[C@@H](O)CN2C(=O)[C@@H](NC(=O)CCCCCCC(=O)N2C[C@@H]3C[C@H]2CN3CC[C@H](CSc2ccccc2)Nc2ccc(S(=O)(=O)NC(=O)c3ccc(N4CCN(CC5=C(c6ccc(Cl)cc6)CCC6(CC6)C5)CC4)cc3)cc2S(=O)(=O)C(F)(F)F)C(C)(C)C)cc1` [Compound 28, (2S,4R)-1-((S)-2-(8-((1S,4S)-5-((R)-3-((4-(N-(4-(4-((6-(4-chlorophenyl)spiro[2.5]oct-5-en-5-yl)methyl)piperazin-1-yl)benzoyl)sulfamoyl)-2-((trifluoromethyl)sulfonyl)phenyl)amino)-4-(phenylthio)butyl)-2,5-diazabicyclo[2.2.1]heptan-2-yl)-8-oxooctanamido)-3,3-dimethylbutanoyl)-4-hydroxy-N—((S)-1-(4-(4-methylthiazol-5-yl)phenyl)ethyl)pyrrolidine-2-carboxamide], with under 0.5 µM. Still for that read-out and setting: then `Cc1ncsc1-c1ccc([C@H](C)NC(=O)[C@@H]2C[C@@H](O)CN2C(=O)[C@@H](NC(=O)CCCCCCC(=O)N2CCN(CC[C@H](CSc3ccccc3)Nc3ccc(S(=O)(=O)NC(=O)c4ccc(N5CCN(CC6=C(c7ccc(Cl)cc7F)CCC(C)(C)C6)CC5)cc4)cc3S(=O)(=O)C(F)(F)F)CC2)C(C)(C)C)cc1` [Compound 24, (2S,4R)-1-((S)-2-(8-(4-((R)-3-((4-(N-(4-(4-((4′-chloro-2′-fluoro-4,4-dimethyl-3,4,5,6-tetrahydro-[1,1′-biphenyl]-2-yl)methyl)piperazin-1-yl)benzoyl)sulfamoyl)-2-((trifluoromethyl)sulfonyl)phenyl)amino)-4-(phenylthio)butyl)piperazin-1-yl)-8-oxooctanamido)-3,3-dimethylbutanoyl)-4-hydroxy-N—((S)-1-(4-(4-methylthiazol-5-yl)phenyl)ethyl)pyrrolidine-2-carboxamide], with under 0.5 µM. On the same count and under the same terms, then `Cc1ncsc1-c1ccc([C@H](C)NC(=O)[C@@H]2C[C@@H](O)CN2C(=O)[C@@H](NC(=O)CCCCCCC(=O)N2CCN(CC[C@H](CSc3ccccc3)Nc3ccc(S(=O)(=O)NC(=O)c4ccc(N5CCN(CC6=C(c7ccc(Cl)cc7F)CCCCC6)CC5)cc4)cc3S(=O)(=O)C(F)(F)F)CC2)C(C)(C)C)cc1` [Compound 36, (2S,4R)-1-((S)-2-(8-(4-((R)-3-((4-(N-(4-(4-((2-(4-chloro-2-fluorophenyl)cyclohept-1-en-1-yl)methyl)piperazin-1-yl)benzoyl)sulfamoyl)-2-((trifluoromethyl)sulfonyl)phenyl)amino)-4-(phenylthio)butyl)piperazin-1-yl)-8-oxooctanamido)-3,3-dimethylbutanoyl)-4-hydroxy-N—((S)-1-(4-(4-methylthiazol-5-yl)phenyl)ethyl)pyrrolidine-2-carboxamide], with under 0.5 µM.

Still in this assay, the particulars now being: read-out: IC50 for the inhibition of MOLT-4 cell proliferation.
On to `Cc1ncsc1-c1ccc([C@H](C)NC(=O)[C@@H]2C[C@@H](O)CN2C(=O)[C@@H](NC(=O)CCCCCCC(=O)N2CCN(CC[C@H](CSc3ccccc3)Nc3ccc(S(=O)(=O)NC(=O)c4ccc(N5CCN(CC6=C(c7ccc(Cl)cc7F)CCC7(CC7)C6)CC5)cc4)cc3S(=O)(=O)C(F)(F)F)CC2)C(C)(C)C)cc1` [Compound 32, (2S,4R)-1-((S)-2-(8-(4-((R)-3-((4-(N-(4-(4-((6-(4-chloro-2-fluorophenyl)spiro[2.5]oct-5-en-5-yl)methyl)piperazin-1-yl)benzoyl)sulfamoyl)-2-((trifluoromethyl)sulfonyl)phenyl)amino)-4-(phenylthio)butyl)piperazin-1-yl)-8-oxoheptanamido)-3,3-dimethylbutanoyl)-4-hydroxy-N—((S)-1-(4-(4-methylthiazol-5-yl)phenyl)ethyl)pyrrolidine-2-carboxamide], for which the IC50 was under 0.5 µM.
